{"source": "patent US11192859B2", "about": "“Quinoline compounds as modulators of RAGE activity and uses thereof” (NEW YORK UNIVERSITY, priority 2016, dated 2021)"}
{"target": "binding of RAGE tail (ctRAGE) to DIAPH1 (Homo sapiens (Human), UniProt Q15109)", "sequence (Q15109 364-404)": "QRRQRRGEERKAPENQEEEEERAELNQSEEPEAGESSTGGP", "experiment": "Primary screen (high-throughput): blocking of GFP RAGE tail binding to DIAPH1", "conditions": "12.5 μM; Table 2", "protocol": "[…] Compounds that reduced binding of RAGE tail (ctRAGE) by at least 50% were then selected and subjected to 4-point dose response (10 uM, 1 uM, 0.1 uM and 0.01 uM).\n• Step 1. Add 50 μl anti-DIAPH1 (1:160 dilution in 0.1M NaHCO3 pH 9.6)/well. Incubate overnight at 4° C. Day 2 • Step 2. Use the plate washer to aspirate anti-DIAPH11 and wash plates 4× with PBS 100 μl per well per wash. • Step 3. Add 180 μl 3% BSA in 1×PBS. Incubate for 1.5 hrs at room temperature Step 4. Use the plate washer to aspirate the blocking solution and wash 5× with PBS 300 μl per well. • Step 5. Add 50 μl of DIAPH1 containing lysate (85 μg) and incubate at RT for 3 hours. • Step 6. Aspirate the lysate and wash the plate 5×(100 μl) on the plate washer. • Step 7. Add 25 μl PBS to the wells. • Step 8. Add 0.5 μL compound per well. • Step 9. Add 24.5 μL GFP RAGE tail (125 nM) into each well for 2 hrs at room temperature. • Step 10. Aspirate and wash 5× with PBS (100 μL) on the plate washer. • Step 11. Add 100 μl PBS in each well. • Step 12. Detection: Read on fluorescence plate reader excitation […] and 485 nm emission\nCompounds that blocked the binding of RAGE tail to DIAPH1 by 50% or more were subjected to 4 point dose response: 10 μM, 1 μM, 0.1 μM and 0.01 μM.", "units": {"inhibition at 12.5 µM": "%"}}
{"smiles": "CC(=O)Nc1ccc(-c2cc(C(=O)N3CCOCC3)c3cccc(Cl)c3n2)cc1", "note": "[Compound 101, N-(4-(8-Chloro-4-(morpholine-4-carbonyl)quinolin-2-yl)phenyl)acetamide]", "inhibition at 12.5 µM": 27}
{"smiles": "CC(=O)Nc1ccc(-c2cc(C(=O)N3CCOCC3)c3cccc(Cl)c3n2)cn1", "note": "[Compound 102, N-(5-(8-Chloro-4-(morpholine-4-carbonyl)quinolin-2-yl)pyridin-2-yl)acetamide]", "inhibition at 12.5 µM": 37}
{"smiles": "CC(=O)Nc1ccc(-c2cc(C(=O)N3CCOCC3)c3cccc(Cl)c3n2)nc1", "note": "[Compound 103, N-(6-(8-Chloro-4-(morpholine-4-carbonyl)quinolin-2-yl)pyridin-3-yl)acetamide]", "inhibition at 12.5 µM": 38}
{"smiles": "CC(=O)Nc1ccc(-c2cc(C(=O)N3CCOCC3)c3cc(Cl)ccc3n2)cc1", "note": "[Compound 104, N-(4-(6-Chloro-4-(morpholine-4-carbonyl)quinolin-2-yl)phenyl)acetamide]", "inhibition at 12.5 µM": 37}
{"smiles": "CC(=O)Nc1ccc(-c2cc(C(=O)N3CCOCC3)c3cc(Cl)ccc3n2)cn1", "note": "[Compound 105, N-(5-(6-Chloro-4-(morpholine-4-carbonyl)quinolin-2-yl)pyridin-2-yl)acetamide]", "inhibition at 12.5 µM": 32}
{"smiles": "CC(=O)Nc1ccc(-c2cc(C(=O)N3CCOCC3)c3cc(Cl)ccc3n2)nc1", "note": "[Compound 106, N-(6-(6-Chloro-4-(morpholine-4-carbonyl)quinolin-2-yl)pyridin-3-yl)acetamide]", "inhibition at 12.5 µM": 35}
{"smiles": "CC(=O)Nc1ccc(-c2cc(N3CCOCC3)c3ccccc3n2)cc1", "note": "[Compound 107, N-(4-(4-Morpholinoquinolin-2-yl)phenyl)acetamide]", "inhibition at 12.5 µM": 31}
{"smiles": "CC(=O)Nc1ccc(-c2cc(CN3CCOCC3)c3ccccc3n2)cc1", "note": "[Compound 108, N-(4-(4-(Morpholinomethyl)quinolin-2-yl)phenyl)acetamide]", "inhibition at 12.5 µM": 44}
{"smiles": "CC(=O)Nc1ccc(-c2cc(CN3CCOCC3)c3ccccc3n2)nc1", "note": "[Compound 109, N-(6-(4-(Morpholinomethyl)quinolin-2-yl)pyridin-3-yl)acetamide]", "inhibition at 12.5 µM": 20}
{"smiles": "CC(=O)Nc1ccc(-c2cc(CN3CCOCC3)c3cccc(Cl)c3n2)nc1", "note": "[Compound 111, N-(6-(8-Chloro-4-(morpholinomethyl)quinolin-2-yl)pyridin-3-yl)acetamide]", "inhibition at 12.5 µM": 18}
{"smiles": "CC(=O)Nc1ccc(-c2cc(C(C)N3CCOCC3)c3ccccc3n2)cc1", "note": "(centres unmarked) [Compound 112, N-(4-(4-(1-Morpholinoethyl)quinolin-2-yl)phenyl)acetamide]", "inhibition at 12.5 µM": 27}
{"target": "ctRAGE (Homo sapiens (Human), UniProt Q15109)", "sequence (Q15109 23-404 limits assumed)": "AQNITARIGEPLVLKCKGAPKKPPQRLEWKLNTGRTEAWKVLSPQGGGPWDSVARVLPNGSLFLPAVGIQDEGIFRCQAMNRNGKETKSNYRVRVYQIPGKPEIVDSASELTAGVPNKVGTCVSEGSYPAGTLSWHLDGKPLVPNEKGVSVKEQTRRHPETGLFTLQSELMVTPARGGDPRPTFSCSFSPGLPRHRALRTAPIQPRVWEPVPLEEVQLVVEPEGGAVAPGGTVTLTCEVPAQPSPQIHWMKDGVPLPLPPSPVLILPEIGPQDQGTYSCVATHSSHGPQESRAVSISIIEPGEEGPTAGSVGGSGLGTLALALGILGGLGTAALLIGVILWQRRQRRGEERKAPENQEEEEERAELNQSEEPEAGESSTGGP", "experiment": "Kd determinations (Tables 1 and 2)", "assay_type": "binding", "conditions": "Table 2", "protocol": "Binding affinities of small molecules for either CT-RAGE or FH1 are determined by performing fluorescence titrations to generate binding isotherms and standard SPR experiments.\nA number of representative quinoline compounds of this invention are or can be tested for their inhibitory activity.", "units": {"Kd": "µM"}}
{"smiles": "CC(=O)Nc1ccc(-c2cc(C(=O)N3CCOCC3)c3cccc(Cl)c3n2)cc1", "note": "[Compound 101, N-(4-(8-Chloro-4-(morpholine-4-carbonyl)quinolin-2-yl)phenyl)acetamide]", "Kd": 43}
{"smiles": "CC(=O)Nc1ccc(-c2cc(C(=O)N3CCOCC3)c3cccc(Cl)c3n2)cn1", "note": "[Compound 102, N-(5-(8-Chloro-4-(morpholine-4-carbonyl)quinolin-2-yl)pyridin-2-yl)acetamide]", "Kd": 29}
{"smiles": "CC(=O)Nc1ccc(-c2cc(C(=O)N3CCOCC3)c3cccc(Cl)c3n2)nc1", "note": "[Compound 103, N-(6-(8-Chloro-4-(morpholine-4-carbonyl)quinolin-2-yl)pyridin-3-yl)acetamide]", "Kd": 18}
{"smiles": "CC(=O)Nc1ccc(-c2cc(C(=O)N3CCOCC3)c3cc(Cl)ccc3n2)cc1", "note": "[Compound 104, N-(4-(6-Chloro-4-(morpholine-4-carbonyl)quinolin-2-yl)phenyl)acetamide]", "Kd": 60}
{"smiles": "CC(=O)Nc1ccc(-c2cc(C(=O)N3CCOCC3)c3cc(Cl)ccc3n2)cn1", "note": "[Compound 105, N-(5-(6-Chloro-4-(morpholine-4-carbonyl)quinolin-2-yl)pyridin-2-yl)acetamide]", "Kd": 45}
{"smiles": "CC(=O)Nc1ccc(-c2cc(C(=O)N3CCOCC3)c3cc(Cl)ccc3n2)nc1", "note": "[Compound 106, N-(6-(6-Chloro-4-(morpholine-4-carbonyl)quinolin-2-yl)pyridin-3-yl)acetamide]", "Kd": 34}
{"smiles": "CC(=O)Nc1ccc(-c2cc(N3CCOCC3)c3ccccc3n2)cc1", "note": "[Compound 107, N-(4-(4-Morpholinoquinolin-2-yl)phenyl)acetamide]", "Kd": 44}
{"smiles": "CC(=O)Nc1ccc(-c2cc(CN3CCOCC3)c3ccccc3n2)cc1", "note": "[Compound 108, N-(4-(4-(Morpholinomethyl)quinolin-2-yl)phenyl)acetamide]", "Kd": 11}
{"smiles": "CC(=O)Nc1ccc(-c2cc(CN3CCOCC3)c3ccccc3n2)nc1", "note": "[Compound 109, N-(6-(4-(Morpholinomethyl)quinolin-2-yl)pyridin-3-yl)acetamide]", "Kd": 1.9}
